Laboratory results taken from patent US6048873A, “Tetrahdroquinolin-2-one 6 or 7-yl, tetrahdroquinilin-2-thione 6 or 7-yl pentadienoic acid and related derivatives having retinoid-like biological activity” (Allergan Sales, Inc., priority 1998, dated 2000).

Tests used:
RXRα [1] = target: T1, RXRα (Homo sapiens, UniProt P19793); assay: RXRα receptor transactivation (Table 1); format: cell-based; conditions: RXR α; for Emax: read-out: % Eff
T1 construct: expressed in transfected cells
T1 sequence (P19793 1-462): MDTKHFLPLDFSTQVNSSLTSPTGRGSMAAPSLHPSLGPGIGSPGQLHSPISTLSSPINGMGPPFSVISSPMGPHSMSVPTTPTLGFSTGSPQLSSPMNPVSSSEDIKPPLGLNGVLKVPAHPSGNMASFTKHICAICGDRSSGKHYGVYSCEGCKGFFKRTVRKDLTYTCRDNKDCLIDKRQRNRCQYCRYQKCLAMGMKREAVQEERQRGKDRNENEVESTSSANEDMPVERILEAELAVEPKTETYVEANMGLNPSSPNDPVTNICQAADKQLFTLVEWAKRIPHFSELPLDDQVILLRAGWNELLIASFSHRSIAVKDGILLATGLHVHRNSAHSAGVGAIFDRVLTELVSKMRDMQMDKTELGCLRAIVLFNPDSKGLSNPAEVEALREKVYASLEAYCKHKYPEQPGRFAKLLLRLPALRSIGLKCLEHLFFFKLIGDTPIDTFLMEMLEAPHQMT
From the text: (§1) Other assays described below, measure the ability of the compounds of the present invention to bind to, and/or activate various retinoid receptor subtypes. When in these assays a compound binds to a given receptor subtype and activates the transcription of a reporter gene through that subtype, then the compound is considered an agonist of that receptor subtype. […] In the below described assays the ability of the compounds to bind to RARα, RARβ, RARγ, RXRα, RXRβ and RXRγ receptors, and the ability or inability of the compounds to activate transcription of a reporter gene through these receptor subtypes can be tested. […] However, some of the compounds of the invention may behave as retinoid antagonists or partial antagonists and/or as inverse agonists. Because of the complex distribution of the different retinoid receptors in various organs of the mammalian body partial agonists and partial antagonists and compounds which have the characteristics of both may lend themselves to particularly useful therapeutic applications and may avoid serious side effects of conventional retinoid drugs.
The specification of U.S. Pat. No. 5,455,265 is hereby expressly incorporated by reference.
(§2) A holoreceptor transactivation assay and a ligand binding assay which measure the antagonist/agonist like activity of the compounds of the invention, or their ability to bind to the several retinoid receptor subtypes, respectively, are described in published PCT Application No. WO WO93/11755 (particularly on pages 30-33 and 37-41) published on Jun. 24, 1993, the specification of which is also incorporated herein by reference. A detailed experimental procedure for holoreceptor transactivations has been described by Heyman et al. Cell 68, 397-406, (1992); Allegretto et al. J. Biol. Chem. 268, 26625-26633, and Mangelsdorf et al. The Retinoids: Biology, Chemistry and Medicine, pp 319-349, Raven Press Ltd., New York, which are expressly incorporated herein by reference. The results obtained in this assay are expressed in EC50 numbers, as they are also in the chimeric receptor transactivation assay. The results of ligand binding assay are expressed in Kd numbers. (See Cheng et al. Biochemical Pharmacology Vol. 22 pp 3099-3108, expressly incorporated herein by reference.)

RXRβ = target: T2, RXRβ (Mus musculus, UniProt P28704); assay: RXRβ receptor transactivation (Table 1); format: cell-based; conditions: RXR β; for Emax: read-out: % Eff
T2 construct: expressed in transfected cells
T2 sequence (P28704 1-520): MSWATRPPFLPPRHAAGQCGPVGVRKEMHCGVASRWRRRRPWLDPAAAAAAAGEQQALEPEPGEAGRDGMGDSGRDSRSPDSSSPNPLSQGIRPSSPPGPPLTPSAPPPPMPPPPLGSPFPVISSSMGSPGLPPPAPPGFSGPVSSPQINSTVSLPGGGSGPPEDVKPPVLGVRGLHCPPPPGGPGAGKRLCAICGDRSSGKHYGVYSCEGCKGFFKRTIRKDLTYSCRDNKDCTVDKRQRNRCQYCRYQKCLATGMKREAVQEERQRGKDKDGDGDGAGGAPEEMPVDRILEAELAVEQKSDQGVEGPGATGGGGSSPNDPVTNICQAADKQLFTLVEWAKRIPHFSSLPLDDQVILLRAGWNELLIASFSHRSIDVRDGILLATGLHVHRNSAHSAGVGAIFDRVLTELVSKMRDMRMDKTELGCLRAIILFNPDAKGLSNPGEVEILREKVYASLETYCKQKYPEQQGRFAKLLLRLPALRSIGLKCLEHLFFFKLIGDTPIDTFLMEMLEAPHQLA
From the text: as §1, §2

RXRγ [2] = target: T3, RXRγ (Mus musculus, UniProt P28705); assay: RXRγ receptor transactivation (Table 1); format: cell-based; conditions: RXR γ; for Emax: read-out: % Eff
T3 construct: expressed in transfected cells
T3 sequence (P28705 1-463): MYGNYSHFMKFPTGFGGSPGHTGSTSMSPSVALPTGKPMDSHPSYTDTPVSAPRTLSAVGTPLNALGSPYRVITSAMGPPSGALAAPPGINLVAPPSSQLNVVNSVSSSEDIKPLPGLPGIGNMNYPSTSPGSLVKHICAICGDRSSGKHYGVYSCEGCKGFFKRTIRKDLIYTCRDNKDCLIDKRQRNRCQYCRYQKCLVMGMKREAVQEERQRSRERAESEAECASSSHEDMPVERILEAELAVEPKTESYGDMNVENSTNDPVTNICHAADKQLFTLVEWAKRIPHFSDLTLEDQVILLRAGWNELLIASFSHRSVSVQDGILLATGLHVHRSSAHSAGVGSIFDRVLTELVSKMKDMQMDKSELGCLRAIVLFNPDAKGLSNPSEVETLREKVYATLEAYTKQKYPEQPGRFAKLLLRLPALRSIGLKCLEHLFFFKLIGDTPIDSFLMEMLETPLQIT
From the text: as §1, §2

RXRα [3] = target: T1, RXRα; assay: RXRα ligand binding (Table 1); conditions: RXR α
From the text: as §1
as §2, with “(See Cheng et al. Biochemical Pharmacology Vol. 22 pp 3099-3108, expressly incorporated herein by reference.)” left out

RXRγ [4] = target: T3, RXRγ; assay: RXRγ ligand binding (Table 1); conditions: RXR γ
From the text: as §1
as §2, with “(See Cheng et al. Biochemical Pharmacology Vol. 22 pp 3099-3108, expressly incorporated herein by reference.)” left out

RARα = target: T4, RARα (Homo sapiens, UniProt P10276); assay: RARα ligand binding (Table 2); conditions: RAR α
T4 sequence (P10276 1-462): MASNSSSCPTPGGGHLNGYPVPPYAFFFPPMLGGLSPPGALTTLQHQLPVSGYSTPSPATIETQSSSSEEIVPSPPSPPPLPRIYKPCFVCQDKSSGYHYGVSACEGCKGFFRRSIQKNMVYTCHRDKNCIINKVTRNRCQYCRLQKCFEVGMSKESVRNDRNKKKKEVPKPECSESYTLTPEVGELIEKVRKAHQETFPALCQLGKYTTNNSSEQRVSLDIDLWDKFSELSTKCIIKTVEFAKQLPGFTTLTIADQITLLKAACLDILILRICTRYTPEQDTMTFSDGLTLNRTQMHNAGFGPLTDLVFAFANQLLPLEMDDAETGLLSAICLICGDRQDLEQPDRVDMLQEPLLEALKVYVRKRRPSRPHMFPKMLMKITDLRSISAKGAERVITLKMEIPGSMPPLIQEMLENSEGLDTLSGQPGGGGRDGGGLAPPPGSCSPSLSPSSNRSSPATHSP
From the text: as §1
as §2, with “(See Cheng et al. Biochemical Pharmacology Vol. 22 pp 3099-3108, expressly incorporated herein by reference.)” left out

RARβ = target: T5, RARβ (Homo sapiens, UniProt P10826); assay: RARβ ligand binding (Table 2); conditions: RAR β
T5 sequence (P10826 1-448 isoform P10826-2): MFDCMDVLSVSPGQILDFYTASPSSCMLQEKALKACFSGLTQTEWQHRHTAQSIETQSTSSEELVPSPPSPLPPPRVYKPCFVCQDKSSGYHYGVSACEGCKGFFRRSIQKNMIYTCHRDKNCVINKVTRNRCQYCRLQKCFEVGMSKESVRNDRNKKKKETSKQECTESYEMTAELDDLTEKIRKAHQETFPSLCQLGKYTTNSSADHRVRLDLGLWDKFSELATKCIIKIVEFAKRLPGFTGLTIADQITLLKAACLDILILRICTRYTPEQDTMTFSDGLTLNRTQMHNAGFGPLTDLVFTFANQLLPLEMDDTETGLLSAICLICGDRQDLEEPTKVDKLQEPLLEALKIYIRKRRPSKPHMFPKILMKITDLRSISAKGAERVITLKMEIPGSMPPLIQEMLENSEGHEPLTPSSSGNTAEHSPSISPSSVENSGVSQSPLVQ
From the text: as §1
as §2, with “(See Cheng et al. Biochemical Pharmacology Vol. 22 pp 3099-3108, expressly incorporated herein by reference.)” left out

RARγ = target: T6, RARγ (Homo sapiens, UniProt P13631); assay: RARγ ligand binding (Table 2); conditions: RAR γ
T6 sequence (P13631 1-454): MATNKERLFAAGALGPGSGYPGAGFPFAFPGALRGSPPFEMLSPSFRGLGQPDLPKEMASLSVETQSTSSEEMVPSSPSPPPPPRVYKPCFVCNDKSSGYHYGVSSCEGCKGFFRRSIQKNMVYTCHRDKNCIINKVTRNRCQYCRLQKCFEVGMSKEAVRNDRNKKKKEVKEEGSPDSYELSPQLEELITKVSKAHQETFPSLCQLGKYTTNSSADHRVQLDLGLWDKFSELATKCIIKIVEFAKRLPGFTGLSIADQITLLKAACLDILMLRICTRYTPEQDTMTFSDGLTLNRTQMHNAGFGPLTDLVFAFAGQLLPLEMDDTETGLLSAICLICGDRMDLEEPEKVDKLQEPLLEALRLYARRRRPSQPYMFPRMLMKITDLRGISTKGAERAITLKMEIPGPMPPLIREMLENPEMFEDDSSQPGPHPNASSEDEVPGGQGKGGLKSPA
From the text: as §1
as §2, with “(See Cheng et al. Biochemical Pharmacology Vol. 22 pp 3099-3108, expressly incorporated herein by reference.)” left out

EC50 (RXRα [1]) [nM]	Emax (RXRα [1]) [%]	EC50 (RXRβ) [nM]	Emax (RXRβ) [%]	EC50 (RXRγ [2]) [nM]	Emax (RXRγ [2]) [%]	Kd (RXRα [3]) [nM]	Kd (RXRγ [4]) [nM]	Kd (RARα) [nM]	Kd (RARβ) [nM]	Kd (RARγ) [nM]	Compound
0.077	107	0.627	109	0.085	115	1.4	3.1	> 10000	> 10000	> 10000	CC(/C=C/[C@@H]1C[C@]1(C)c1ccc2c(c1)C(C)(C)CC(=O)N2C(C)C)=C\C(=O)O [Compound 1, (6S,7S)-7-(4,4-Dimethyl-2-oxo-1-(2-propyl)-1,2,3,4-tetrahydroquinolin-6-yl)-6,7-methano-3-methyl-octa-2E,4E-dienoic acid]
0.064	160	0.376	144	0.059	137	0.97	10.5	27000	31000	25000	CC(/C=C/[C@@H]1C[C@]1(C)c1ccc2c(c1)C(C)(C)CC(=S)N2C(C)C)=C\C(=O)O [Compound 2, (6S,7S)-7-(4,4-Dimethyl-1-(2-propyl)-2-thioxo-1,2,3,4-tetrahydroquinolin-6-yl)-6,7-methano-3-methyl-octa-2E,4E-dienoic acid]
0.15	110	0.42	115	0.31	101	0.35	4.1	> 30000	10000	12000	CC(/C=C/[C@@H]1C[C@]1(C)c1ccc2c(c1)C(C)(C)CCN2C(=O)OC(C)(C)C)=C\C(=O)O [Compound 17]
